Measurements as given in article PMC7998563 (Viruses, 2021).

Target: T1, HCMV core nuclear egress complex (core NEC), pUL50-pUL53 (Human herpesvirus 5 strain AD169, UniProt P16791+P16794)
T1 construct: gene NEC2; pUL50 His-tagged, pUL53 coated on plate; heterodimer
Assay: ELISA-type pUL50-pUL53 interaction inhibition assay, anti-His-HRP detection
Type: binding

T1 sequence (P16791 1-181): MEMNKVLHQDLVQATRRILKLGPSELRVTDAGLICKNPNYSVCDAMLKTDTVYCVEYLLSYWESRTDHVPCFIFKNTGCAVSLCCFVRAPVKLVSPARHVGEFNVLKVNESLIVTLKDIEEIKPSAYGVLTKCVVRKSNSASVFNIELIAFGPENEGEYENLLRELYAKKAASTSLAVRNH
T1 sequence (P16794 50-292): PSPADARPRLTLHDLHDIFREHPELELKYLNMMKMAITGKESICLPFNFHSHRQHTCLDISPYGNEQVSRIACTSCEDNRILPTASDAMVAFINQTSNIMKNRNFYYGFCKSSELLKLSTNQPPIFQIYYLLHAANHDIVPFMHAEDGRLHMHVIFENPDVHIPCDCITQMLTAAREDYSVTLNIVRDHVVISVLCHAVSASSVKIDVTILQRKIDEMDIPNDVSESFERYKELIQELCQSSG

O=C(O)c1ccccc1-c1c2cc(Br)c(=O)[c]([Hg+])c-2oc2cc(O)c(Br)cc12 [P10G08, merbromin]
IC50: 38 nM
